One data set addresses GLP-1R (Homo sapiens, UniProt P43220). The data set is described as follows: GLP-1R activation: cAMP increase in CHO cells stably expressing GLP-1R. Type of data set: cell-based. Conditions: cAMP increase, CHO cells stably expressing GLP-1R, 10 point dose response, 30 minutes incubation; read-out: EC50.
The nature of data set [1]: Microsomal stability, human liver microsomes (predicted hepatic clearance). The settings on record: predicted from in vitro microsomal stability data.

Sequence of GLP-1R (P43220 24-463): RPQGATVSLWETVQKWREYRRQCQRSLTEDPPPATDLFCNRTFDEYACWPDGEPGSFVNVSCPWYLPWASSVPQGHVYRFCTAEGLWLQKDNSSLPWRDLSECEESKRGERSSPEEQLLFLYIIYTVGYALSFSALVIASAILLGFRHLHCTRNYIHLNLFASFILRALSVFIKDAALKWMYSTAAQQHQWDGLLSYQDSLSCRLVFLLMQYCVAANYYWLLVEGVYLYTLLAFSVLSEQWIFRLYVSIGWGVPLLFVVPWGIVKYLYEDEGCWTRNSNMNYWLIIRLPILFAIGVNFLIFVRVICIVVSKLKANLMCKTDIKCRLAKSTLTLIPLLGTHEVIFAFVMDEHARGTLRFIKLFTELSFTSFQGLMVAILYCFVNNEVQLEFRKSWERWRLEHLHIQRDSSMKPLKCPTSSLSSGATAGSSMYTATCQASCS

As a reminder, the EC50 is the concentration needed to bring the measured effect to its halfway point. On to `N#Cc1ccc(COc2cccc(-c3cc(F)c(Cc4nc5ccc(C(=O)O)nc5n4CC4(CF)CC4)c(F)c3)n2)c(F)c1` [Example 319, 2-(4-(6-((4-cyano-2-fluorobenzyl)oxy)pyridin-2-yl)-2,6-difluorobenzyl)-3-((1-(fluoromethyl)cyclopropyl)methyl)-3H-imidazo[4,5-b]pyridine-5-carboxylic acid], for which the EC50 on GLP-1R worked out at 2.43 nM. In addition, the “Predicted Hepatic Clearance (Pred. Cl.)” value in data set [1] was under 1.83 mL/min/kg.

On to `COCCn1c(Cc2ccc(-c3ccc(F)c(OCc4ccc(C#N)cc4F)n3)c(F)c2)nc2ccc(C(=O)O)cc21` [Example 320, 2-(4-(6-((4-cyano-2-fluorobenzyl)oxy)-5-fluoropyridin-2-yl)-3-fluorobenzyl)-1-(2-methoxyethyl)-1H-benzo[d]imidazole-carboxylic acid], for which, at GLP-1R, the concentration giving a half-maximal response (EC50) came out at 18 nM. The “Predicted Hepatic Clearance (Pred. Cl.)” value in data set [1] is 4.17 mL/min/kg.

For the molecule `O=C(O)c1ccc2nc(Cc3ccc(-c4cccc(OCc5ccc(Cl)cc5F)n4)c(F)c3)n(CC3(CF)CC3)c2n1` [Example 321, 2-(4-(6-((4-chloro-2-fluorobenzyl)oxy)pyridin-2-yl)-3-fluorobenzyl)-3-((1-(fluoromethyl)cyclopropyl)methyl)-3H-imidazo[4,5-b]pyridine-5-carboxylic acid], the concentration giving a half-maximal response (EC50) on GLP-1R is 0.27 nM. Moreover, the “Predicted Hepatic Clearance (Pred. Cl.)” value in data set [1] is 6.33 mL/min/kg.

Turning to `COc1cc(C#N)ccc1COc1nccc(-c2ccc(Cc3nc4ccc(C(=O)O)nc4n3CC3(CF)CC3)cc2F)n1` [Example 322, 2-(4-(2-((4-cyano-2-methoxybenzyl)oxy)pyrimidin-4-yl)-3-fluorobenzyl)-3-((1-(fluoromethyl)cyclopropyl)methyl)-3H-imidazo[4,5-b]pyridine-5-carboxylic acid], the concentration giving a half-maximal response (EC50) on GLP-1R came to 0.58 nM. In addition, the “Predicted Hepatic Clearance (Pred. Cl.)” value in data set [1] is 12.3 mL/min/kg.

`N#Cc1ccc(COc2cccc(-c3ccc(Cc4nc5ccc(C(=O)O)cc5n4CCOC(F)(F)F)c(F)c3)n2)c(F)c1` [Example 323, 2-(4-(6-((4-cyano-2-fluorobenzyl)oxy)pyridin-2-yl)-2-fluorobenzyl)-1-(2-(trifluoromethoxy)ethyl)-1H-benzo[d]imidazole-6-carboxylic acid]: on GLP-1R, the EC50 came out at 27.5 nM. In addition, the “Predicted Hepatic Clearance (Pred. Cl.)” value in data set [1] was 4.33 mL/min/kg.

Turning to `N#Cc1ccc(COc2cccc(-c3ccc(Cc4nc5ccc(C(=O)O)cc5n4CCOC(F)F)c(F)c3)n2)c(F)c1` [Example 324, 2-(4-(6-((4-cyano-2-fluorobenzyl)oxy)pyridin-2-yl)-2-fluorobenzyl)-1-(2-(difluoromethoxy)ethyl)-1H-benzo[d]imidazole-6-carboxylic acid], at GLP-1R, the EC50 was 5.22 nM. Also, the “Predicted Hepatic Clearance (Pred. Cl.)” value in data set [1] was 2.83 mL/min/kg.

For the molecule `N#Cc1ccc(COc2cccc(-c3cc(F)c(Cc4nc5ccc(C(=O)O)cc5n4CCOC(F)F)cc3F)n2)c(F)c1` [Example 325, 2-(4-(6-((4-cyano-2-fluorobenzyl)oxy)pyridin-2-yl)-2,5-difluorobenzyl)-1-(2-(difluoromethoxy)ethyl)-1H-benzo[d]imidazole-6-carboxylic acid], the 50% effective concentration (EC50) at GLP-1R came to 1.61 nM. Also, the “Predicted Hepatic Clearance (Pred. Cl.)” value in data set [1] is 5.67 mL/min/kg.

Take `N#Cc1ccc(COc2cccc(-c3ccc(Cc4nc5ccc(C(=O)O)cc5n4CC4(CO)COC4)c(F)c3)n2)c(F)c1` [Example 326, 2-(4-(6-((4-cyano-2-fluorobenzyl)oxy)pyridin-2-yl)-2-fluorobenzyl)-1-((3-(hydroxymethyl)oxetan-3-yl)methyl)-1H-benzo[d]imidazole-6-carboxylic acid]: on GLP-1R, the concentration giving a half-maximal response (EC50) was found to be 6.81 nM. The “Predicted Hepatic Clearance (Pred. Cl.)” value in data set [1] was 12.3 mL/min/kg.

Take `CO[C@H](C)Cn1c(Cc2ccc(-c3cccc(OCc4ccc(C#N)cc4F)n3)cc2F)nc2ccc(C(=O)O)cc21` [Example 327, (R)-2-(4-(6-((4-cyano-2-fluorobenzyl)oxy)pyridin-2-yl)-2-fluorobenzyl)-1-(2-methoxypropyl)-1H-benzo[d]imidazole-6-carboxylic acid]: the 50% effective concentration (EC50) at GLP-1R was found to be 7.73 nM. Further, the “Predicted Hepatic Clearance (Pred. Cl.)” value in data set [1] is 3 mL/min/kg.

As to `CO[C@@H](C)Cn1c(Cc2ccc(-c3cccc(OCc4ccc(C#N)cc4F)n3)cc2F)nc2ccc(C(=O)O)cc21` [Example 331, (S)-2-(4-(6-((4-cyano-2-fluorobenzyl)oxy)pyridin-2-yl)-2-fluorobenzyl)-1-(2-methoxypropyl)-1H-benzo[d]imidazole-6-carboxylic acid], the half-maximal effective concentration (EC50) on GLP-1R is 12.3 nM. The “Predicted Hepatic Clearance (Pred. Cl.)” value in data set [1] is 4 mL/min/kg.

In the case of `N#Cc1ccc(COc2nccc(-c3ccc(Cc4nc5ccc(C(=O)O)cc5n4CC4(CF)CC4)c(F)c3)n2)c(F)c1` [Example 344, 2-(4-(2-((4-cyano-2-fluorobenzyl)oxy)pyrimidin-4-yl)-2-fluorobenzyl)-1-((1-(fluoromethyl)cyclopropyl)methyl)-1H-benzo[d]imidazole-6-carboxylic acid], the concentration for a half-maximal effect (EC50) at GLP-1R was 1.56 nM. The “Predicted Hepatic Clearance (Pred. Cl.)” value in data set [1] is under 1.83 mL/min/kg.

Turning to `COCCn1c(Cc2ccc(-c3cccc(OCc4ccc(C#N)cc4F)n3)cc2F)nc2c(OC)cc(C(=O)O)cc21` [Example 345, 2-(4-(6-((4-cyano-2-fluorobenzyl)oxy)pyridin-2-yl)-2-fluorobenzyl)-4-methoxy-1-(2-methoxyethyl)-1H-benzo[d]imidazole-6-carboxylic], the 50% effective concentration (EC50) at GLP-1R turned out to be 175 nM. Further, the “Predicted Hepatic Clearance (Pred. Cl.)” value in data set [1] was 3.83 mL/min/kg.

Regarding `COCCn1c(Cc2ccc(-c3cccc(OCc4ccc(C#N)cc4OC4CC4)n3)cc2F)nc2ccc(C(=O)O)cc21` [Example 346, 2-(4-(6-((4-cyano-2-cyclopropoxybenzyl)oxy)pyridin-2-yl)-2-fluorobenzyl)-1-(2-methoxyethyl)-1H-benzo[d]imidazole-6-carboxylic acid], the half-maximal effective concentration (EC50) at GLP-1R amounted to 94.6 nM. Also, the “Predicted Hepatic Clearance (Pred. Cl.)” value in data set [1] was 7.83 mL/min/kg.

Turning to `CC(C)n1c(Cc2ccc(-c3cccc(OCc4ccc(C#N)cc4F)n3)cc2F)nc2ccc(C(=O)O)cc21` [Example 347, 2-(4-(6-((4-cyano-2-fluorobenzyl)oxy)pyridin-2-yl)-2-fluorobenzyl)-1-isopropyl-1H-benzo[d]imidazole-6-carboxylic acid], the half-maximal effective concentration (EC50) on GLP-1R was found to be 92.6 nM. Besides, in data set [1], the “Predicted Hepatic Clearance (Pred. Cl.)” value was 5.5 mL/min/kg.

Take `COCCn1c(Cc2ccc(-c3cccc(OCc4cccc5c4OCCO5)n3)cc2F)nc2ccc(C(=O)O)cc21` [Example 348, 2-(4-(6-((2,3-dihydrobenzo[b][1,4]dioxin-5-yl)methoxy)pyridin-2-yl)-2-fluorobenzyl)-1-(2-methoxyethyl)-1H-benzo[d]imidazole-6-carboxylic acid]: on GLP-1R, the EC50 was 48.1 nM. For the same molecule, in data set [1], the “Predicted Hepatic Clearance (Pred. Cl.)” value was 9.5 mL/min/kg.

For the molecule `COCCn1c(Cc2cc(F)c(-c3ccnc(OCc4ccc(C#N)cc4F)n3)cc2F)nc2ccc(C(=O)O)cc21` [Example 349, 2-(4-(2-((4-cyano-2-fluorobenzyl)oxy)pyrimidin-4-yl)-2,5-difluorobenzyl)-1-(2-methoxyethyl)-1H-benzo[d]imidazole-6-carboxylic acid], the half-maximal effective concentration (EC50) on GLP-1R amounted to 3.05 nM. In addition, the “Predicted Hepatic Clearance (Pred. Cl.)” value in data set [1] is under 1.83 mL/min/kg.

In the case of `N#Cc1ccc(COc2nccc(-c3ccc(Cc4nc5ccc(C(=O)O)cc5n4CC4(CF)CC4)cc3F)n2)c(F)c1` [Example 350, 2-(4-(2-((4-cyano-2-fluorobenzyl)oxy)pyrimidin-4-yl)-3-fluorobenzyl)-1-((1-(fluoromethyl)cyclopropyl)methyl)-1H-benzo[d]imidazole-6-carboxylic acid], the 50% effective concentration (EC50) on GLP-1R stood at 0.79 nM. Moreover, the “Predicted Hepatic Clearance (Pred. Cl.)” value in data set [1] is 6.33 mL/min/kg.

For `N#Cc1ccc(COc2nccc(-c3ccc(Cc4nc5ccc(C(=O)O)cc5n4C[C@@H]4CCO4)c(F)c3)n2)c(F)c1` [Example 351, (S)-2-(4-(2-((4-cyano-2-fluorobenzyl)oxy)pyrimidin-4-yl)-2-fluorobenzyl)-1-(oxetan-2-ylmethyl)-1H-benzo[d]imidazole-6-carboxylic acid], on GLP-1R, the EC50 worked out at 0.96 nM. In addition, the “Predicted Hepatic Clearance (Pred. Cl.)” value in data set [1] is 2 mL/min/kg.

Regarding `O=C(O)c1ccc2nc(Cc3ccc(-c4cccc(OCc5ccc(Cl)cc5F)n4)cc3F)n(CC3(CF)CC3)c2c1` [Example 352, 2-(4-(6-((4-chloro-2-fluorobenzyl)oxy)pyridin-2-yl)-2-fluorobenzyl)-1-((1-(fluoromethyl)cyclopropyl)methyl)-1H-benzo[d]imidazole-6-carboxylic acid], at GLP-1R, the EC50 turned out to be 1.45 nM. In addition, the “Predicted Hepatic Clearance (Pred. Cl.)” value in data set [1] is under 1.83 mL/min/kg.

With `N#CCC1(Cn2c(Cc3ccc(-c4ccnc(OCc5ccc(C#N)cc5F)n4)cc3F)nc3ccc(C(=O)O)cc32)CC1` [Example 353, 2-(4-(2-((4-cyano-2-fluorobenzyl)oxy)pyrimidin-4-yl)-2-fluorobenzyl)-1-((1-(cyanomethyl)cyclopropyl)methyl)-1H-benzo[d]imidazole-6-carboxylic acid], on GLP-1R, the EC50 amounted to 1.67 nM. The “Predicted Hepatic Clearance (Pred. Cl.)” value in data set [1] was under 1.83 mL/min/kg.

As for `Cn1c(Cc2ccc(-c3cccc(OCc4ccc(C#N)cc4F)n3)cc2F)nc2ccc(C(=O)O)cc21` [Example 354, 2-(4-(6-((4-cyano-2-fluorobenzyl)oxy)pyridin-2-yl)-2-fluorobenzyl)-1-methyl-1H-benzo[d]imidazole-6-carboxylic acid], the EC50 on GLP-1R came out at 146 nM. In addition, the “Predicted Hepatic Clearance (Pred. Cl.)” value in data set [1] is 7.5 mL/min/kg.

Regarding `N#Cc1ccc(COc2cccc(-c3ccc(Cc4nc5ccc(C(=O)O)nc5n4CC4(CF)CC4)c(F)c3)n2)c(F)c1` [Example 355, 2-(4-(6-((4-cyano-2-fluorobenzyl)oxy)pyridin-2-yl)-2-fluorobenzyl)-3-((1-(fluoromethyl)cyclopropyl)methyl)-3H-imidazo[4,5-b]pyridine-5-carboxylic acid], the EC50 on GLP-1R came out at 0.97 nM. In data set [1], the “Predicted Hepatic Clearance (Pred. Cl.)” value is 3.3 mL/min/kg.

For the molecule `N#Cc1ccc(COc2cccc(-c3ccc(Cc4nc5ccc(C(=O)O)cc5n4C4CC4)c(F)c3)n2)c(F)c1` [Example 356, 2-(4-(6-((4-cyano-2-fluorobenzyl)oxy)pyridin-2-yl)-2-fluorobenzyl)-1-cyclopropyl-1H-benzo[d]imidazole-6-carboxylic acid], at GLP-1R, the concentration giving a half-maximal response (EC50) is 48.7 nM. Besides, in data set [1], the “Predicted Hepatic Clearance (Pred. Cl.)” value was 7.17 mL/min/kg.

(Values after patent US11702404B2, “GLP-1R modulating compounds” (priority 2019, dated 2023).)
